In PubChem BioAssay (NCI):
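Values below derive from 48-hour exposures of cells grown in 96-well plates, with endpoints linearly interpolated between the two concentrations bracketing the appropriate inhibition level. At the TGI there is no net growth.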

How the values were obtained:
Assay in all cases: DTP human tumour cell line panel, 48 h
786-0 renal = test system: 786-0 renal
A498 renal = test system: A498 renal
A549 NSCLC = test system: A549 NSCLC
ACHN renal = test system: ACHN renal
BT-549 breast = test system: BT-549 breast
CAKI-1 renal = test system: CAKI-1 renal
CCRF-CEM leukemia = test system: CCRF-CEM leukemia
COLO 205 colon = test system: COLO 205 colon
DU-145 prostate = test system: DU-145 prostate
EKVX NSCLC = test system: EKVX NSCLC
HCC-2998 colon = test system: HCC-2998 colon
HCT-116 colon = test system: HCT-116 colon
HCT-15 colon = test system: HCT-15 colon
HL-60(TB) leukemia = test system: HL-60(TB) leukemia
HOP-62 NSCLC = test system: HOP-62 NSCLC
HOP-92 NSCLC = test system: HOP-92 NSCLC
HS 578T breast = test system: HS 578T breast
HT29 colon = test system: HT29 colon
IGROV1 ovarian = test system: IGROV1 ovarian
K-562 leukemia = test system: K-562 leukemia
KM12 colon = test system: KM12 colon
LOX IMVI melanoma = test system: LOX IMVI melanoma
M14 melanoma = test system: M14 melanoma
MALME-3M melanoma = test system: MALME-3M melanoma
MCF7 breast = test system: MCF7 breast
MDA-MB-231 breast = test system: MDA-MB-231 breast
MDA-MB-435 = test system: MDA-MB-435
MDA-N = test system: MDA-N
MOLT-4 leukemia = test system: MOLT-4 leukemia
NCI-H226 lung = test system: NCI-H226 lung
NCI-H23 lung = test system: NCI-H23 lung
NCI-H460 lung = test system: NCI-H460 lung
NCI-H522 lung = test system: NCI-H522 lung
NCI/ADR-RES ovarian = test system: NCI/ADR-RES ovarian
OVCAR-3 ovarian = test system: OVCAR-3 ovarian
OVCAR-4 ovarian = test system: OVCAR-4 ovarian
OVCAR-5 ovarian = test system: OVCAR-5 ovarian
OVCAR-8 ovarian = test system: OVCAR-8 ovarian
PC-3 prostate = test system: PC-3 prostate
RPMI-8226 leukemia = test system: RPMI-8226 leukemia
RXF 393 renal = test system: RXF 393 renal
SF-268 CNS = test system: SF-268 CNS
SF-295 CNS = test system: SF-295 CNS
SF-539 CNS = test system: SF-539 CNS
SK-MEL-2 melanoma = test system: SK-MEL-2 melanoma
SK-MEL-28 melanoma = test system: SK-MEL-28 melanoma
SK-MEL-5 melanoma = test system: SK-MEL-5 melanoma
SK-OV-3 ovarian = test system: SK-OV-3 ovarian
SN12C renal = test system: SN12C renal
SNB-19 CNS = test system: SNB-19 CNS
SNB-75 CNS = test system: SNB-75 CNS
SR leukemia = test system: SR leukemia
SW-620 colon = test system: SW-620 colon
T-47D breast = test system: T-47D breast
TK-10 renal = test system: TK-10 renal
U251 CNS = test system: U251 CNS
UACC-257 melanoma = test system: UACC-257 melanoma
UACC-62 melanoma = test system: UACC-62 melanoma
UO-31 renal = test system: UO-31 renal

Measured: TGI

O=[N+]([O-])c1ccc2ncccc2c1CCc1c([N+](=O)[O-])ccc2ncccc12
> 100 µM: all assays above
